Experimental data from PubChem BioAssay (NCI).
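Test compounds were applied to cells in 96-well plates for 48 hours at 5 doses. TGI is the concentration that stops growth completely.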

Columns and labels:
Assay in all cases: inhibition of tumour cell growth, NCI panel, 48 h
[1] = tested on: SNB-19 CNS
[2] = tested on: M14 melanoma
[3] = tested on: OVCAR-3 ovarian
[4] = tested on: SF-539 CNS
[5] = tested on: MDA-MB-435
[6] = tested on: SN12C renal
[7] = tested on: NCI/ADR-RES ovarian
[8] = tested on: HCT-15 colon
[9] = tested on: CAKI-1 renal

## COC(=O)[C@@H]1C=C[C@@H](C#N)n2c(=O)n(-c3ccccc3)c(=O)n21
[1]
  TGI: > 100 µM
[2]
  TGI: > 100 µM
[3]
  TGI: 58.9 µM
[4]
  TGI: 65.3 µM
[5]
  TGI: > 100 µM
[6]
  TGI: 95 µM
[7]
  TGI: 68 µM
[8]
  TGI: > 100 µM
[9]
  TGI: > 100 µM

## CSc1c(C(=O)Nc2ccc(C)cc2)c(N)nn1-c1ccccc1
[1]
  TGI: > 100 µM
[2]
  TGI: > 100 µM
[3]
  TGI: > 100 µM
[4]
  TGI: 92.1 µM
[5]
  TGI: > 100 µM
[6]
  TGI: > 100 µM
[8]
  TGI: > 100 µM
[9]
  TGI: 49.9 µM

## Clc1ccccc1/C=C/c1nsc(/C=C/c2ccccc2Cl)n1
[1]
  TGI: > 100 µM
[2]
  TGI: > 100 µM
[3]
  TGI: > 100 µM
[4]
  TGI: > 100 µM
[5]
  TGI: > 100 µM
[6]
  TGI: 51.5 µM
[7]
  TGI: > 100 µM
[8]
  TGI: > 100 µM
[9]
  TGI: > 100 µM

## N#Cc1ncn(-c2ccccc2)c1N
[1]
  TGI: > 100 µM
[2]
  TGI: > 100 µM
[3]
  TGI: > 100 µM
[4]
  TGI: > 100 µM
[5]
  TGI: > 100 µM
[6]
  TGI: > 100 µM
[7]
  TGI: > 100 µM
[8]
  TGI: > 100 µM
[9]
  TGI: > 100 µM

## OC1c2ccccc2[C@@H]2[C@H]1[C@@H](c1ccccc1)C1(Cc3ccccc3C1O)[C@H]2c1ccccc1 (stereo not given in full)
[1]
  TGI: 26.5 µM
[2]
  TGI: 17.1 µM
[3]
  TGI: 6.27 µM
[4]
  TGI: 26.6 µM
[5]
  TGI: 7.73 µM
[6]
  TGI: 3.29 µM
[7]
  TGI: 16.6 µM
[8]
  TGI: 15.1 µM
[9]
  TGI: 22.8 µM

## CN1CCN(c2nc3ccccc3nc2C(=O)c2ccc(Cl)cc2)CC1
[1]
  TGI: > 100 µM
[2]
  TGI: 62.8 µM
[3]
  TGI: > 100 µM
[4]
  TGI: > 100 µM
[5]
  TGI: > 100 µM
[7]
  TGI: > 100 µM
[8]
  TGI: > 100 µM
[9]
  TGI: > 100 µM

## O=C1/C(=C\c2ccc([N+](=O)[O-])cc2)Sc2scc(-c3ccc(O)c(O)c3)[n+]21
[1]
  TGI: 74 µM
[2]
  TGI: 27.4 µM
[3]
  TGI: 9.79 µM
[4]
  TGI: 22.5 µM
[5]
  TGI: 21.9 µM
[6]
  TGI: 50 µM
[7]
  TGI: 50.1 µM
[8]
  TGI: 14.1 µM
[9]
  TGI: 9.72 µM

## CSC(SC)=C1C(=O)NN=C1C
[1]
  TGI: > 100 µM
[2]
  TGI: > 100 µM
[3]
  TGI: > 100 µM
[4]
  TGI: > 100 µM
[5]
  TGI: > 100 µM
[6]
  TGI: > 100 µM
[8]
  TGI: > 100 µM
[9]
  TGI: > 100 µM

## CC(=O)N1c2ccccc2C(C)(C)OC1C(Cl)(Cl)Cl (stereo not given)
[1]
  TGI: > 100 µM
[2]
  TGI: > 100 µM
[3]
  TGI: > 100 µM
[4]
  TGI: > 100 µM
[5]
  TGI: > 100 µM
[6]
  TGI: > 100 µM
[7]
  TGI: > 100 µM
[8]
  TGI: > 100 µM
[9]
  TGI: > 100 µM

## CCCCCCCCCCCCCCCC(=O)ON1C(=S)NC(C)(c2ccccc2)C1=S (stereo not given)
[1]
  TGI: > 100 µM
[2]
  TGI: 80.1 µM
[3]
  TGI: > 100 µM
[4]
  TGI: > 100 µM
[6]
  TGI: > 100 µM
[7]
  TGI: > 100 µM
[8]
  TGI: > 100 µM
[9]
  TGI: > 100 µM

## O=C(CCCN1CCC2(CC1)C(=O)NC(=O)N2c1ccccc1)c1ccc(F)cc1
[1]
  TGI: > 100 µM
[2]
  TGI: > 100 µM
[3]
  TGI: > 100 µM
[4]
  TGI: > 100 µM
[5]
  TGI: > 100 µM
[6]
  TGI: > 100 µM
[7]
  TGI: > 100 µM
[8]
  TGI: > 100 µM
[9]
  TGI: > 100 µM

## CC(NC1=CC(=O)c2ncccc2C1=O)C(O)c1ccccc1 (stereo not given)
[1]
  TGI: 20 µM
[2]
  TGI: 11 µM
[3]
  TGI: 16.3 µM
[4]
  TGI: 19.7 µM
[5]
  TGI: 3.02 µM
[6]
  TGI: 24.9 µM
[7]
  TGI: 43.1 µM
[8]
  TGI: 17.3 µM
[9]
  TGI: 16.2 µM

## O=C(O)C(Cc1ccc2c(c1)CCC2)(Cc1ccc2c(c1)CCC2)C(=O)O
[1]
  TGI: > 100 µM
[2]
  TGI: > 100 µM
[3]
  TGI: > 100 µM
[4]
  TGI: > 100 µM
[5]
  TGI: > 100 µM
[6]
  TGI: > 100 µM
[7]
  TGI: > 100 µM
[8]
  TGI: > 100 µM

## CC1=C2C(=O)O[C@@H](c3ccoc3)[C@]2(C)CCC1=O
[1]
  TGI: > 100 µM
[2]
  TGI: > 100 µM
[3]
  TGI: > 100 µM
[4]
  TGI: > 100 µM
[5]
  TGI: > 100 µM
[6]
  TGI: > 100 µM
[7]
  TGI: > 100 µM
[8]
  TGI: > 100 µM
[9]
  TGI: > 100 µM

## Oc1c(C2=NNC(c3cccs3)C2)ccc2ccccc12 (stereo not given)
[2]
  TGI: 32.5 µM
[3]
  TGI: 43.5 µM
[4]
  TGI: 43.1 µM
[5]
  TGI: 40 µM
[6]
  TGI: 38.1 µM
[7]
  TGI: 82 µM
[8]
  TGI: > 100 µM
[9]
  TGI: > 100 µM

## Cc1cc(C)c(S(=O)(=O)N[C@@H](/C=C(\Br)CO)C(C)C)c(C)c1
[1]
  TGI: > 100 µM
[2]
  TGI: 91.3 µM
[3]
  TGI: 51.8 µM
[4]
  TGI: > 100 µM
[5]
  TGI: 34.1 µM
[6]
  TGI: 32 µM
[7]
  TGI: > 100 µM
[8]
  TGI: > 100 µM
[9]
  TGI: > 100 µM

## Cc1c2c(c(C)n1-c1ccccc1)C(=O)N(CCSC(=N)N)C2=O
[1]
  TGI: > 100 µM
[2]
  TGI: > 100 µM
[3]
  TGI: > 100 µM
[4]
  TGI: > 100 µM
[5]
  TGI: > 100 µM
[6]
  TGI: > 100 µM
[7]
  TGI: > 100 µM
[8]
  TGI: > 100 µM
[9]
  TGI: > 100 µM

## Cc1ccc(S(=O)(=O)NC(=O)NC(CO)C(=O)O)cc1 (stereo not given)
[1]
  TGI: > 100 µM
[2]
  TGI: > 100 µM
[4]
  TGI: > 100 µM
[6]
  TGI: > 100 µM
[7]
  TGI: > 100 µM
[8]
  TGI: > 100 µM

## N#Cc1cccc(C2ON=C(c3ccc([N+](=O)[O-])cc3)N2C23CC4CC(CC(C4)C2)C3)c1 (stereo not given)
[1]
  TGI: > 100 µM
[2]
  TGI: > 100 µM
[3]
  TGI: > 100 µM
[4]
  TGI: > 100 µM
[5]
  TGI: > 100 µM
[6]
  TGI: > 100 µM
[7]
  TGI: > 100 µM
[8]
  TGI: > 100 µM
[9]
  TGI: > 100 µM

## CC(=O)OCC1OC(Nc2ccc3nc(C)n(-c4cccc(C)c4)c(=O)c3c2)C(OC(C)=O)C(OC(C)=O)C1OC(C)=O (stereo not given)
[1]
  TGI: > 62.5 µM
[3]
  TGI: > 62.5 µM
[5]
  TGI: > 62.5 µM
[6]
  TGI: > 62.5 µM
[7]
  TGI: > 62.5 µM
[8]
  TGI: > 62.5 µM
[9]
  TGI: > 62.5 µM

## Cc1cc2nc(N3C(=O)/C(=C/c4cccc([N+](=O)[O-])c4)N=C3c3ccccc3)sc2cc1C
[1]
  TGI: > 100 µM
[2]
  TGI: > 100 µM
[3]
  TGI: > 100 µM
[4]
  TGI: > 100 µM
[5]
  TGI: 36.5 µM
[6]
  TGI: > 100 µM
[7]
  TGI: > 100 µM
[8]
  TGI: > 100 µM
[9]
  TGI: > 100 µM

## O=C1C(C(O)(C(F)(F)Cl)C(F)(F)Cl)CCC1C(O)(C(F)(F)Cl)C(F)(F)Cl (stereo not given)
[1]
  TGI: > 10 µM
[2]
  TGI: > 10 µM
[3]
  TGI: > 10 µM
[4]
  TGI: 8.56 µM
[5]
  TGI: > 10 µM
[6]
  TGI: > 10 µM
[7]
  TGI: > 10 µM
[8]
  TGI: > 10 µM
[9]
  TGI: 9.69 µM

## O=C(NCCN1C(=O)CN=C(c2ccc(Cl)cc2)c2cc(Cl)ccc21)OCc1ccccc1
[1]
  TGI: 50.8 µM
[2]
  TGI: 34.9 µM
[3]
  TGI: 26 µM
[4]
  TGI: 38.2 µM
[5]
  TGI: 32.9 µM
[6]
  TGI: 28.7 µM
[7]
  TGI: 35.7 µM
[8]
  TGI: 44.6 µM
[9]
  TGI: 31.9 µM

## COc1cc2c(cc1OC)C1Cc3ccccc3CCN1CC2 (stereo not given)
[1]
  TGI: > 100 µM
[2]
  TGI: > 100 µM
[3]
  TGI: > 100 µM
[4]
  TGI: > 100 µM
[5]
  TGI: > 100 µM
[6]
  TGI: > 100 µM
[7]
  TGI: > 100 µM
[8]
  TGI: > 100 µM
[9]
  TGI: > 100 µM
